Experimental data as given in patent publication US10828265B2, “Formulations of propranolol and analogs as an amorphous melt or ionic liquid for transdermal drug delivery” (The Regents of the University of California, priority 2016, dated 2020).
Counter-ions that a name gives are not always drawn. Like-named read-outs stand apart in the source and are kept apart here.

How the values were obtained:
[1] = test system: Mat Tek Epiderm FT human skin equivalent tissues; conditions: for Dose-normalized skin irritation potential, fold lower than 0.1 M PFB EtOH formulation: interleukin-1α release divided by applied dose, neat melt, FIG. 8A; for skin irritation potential normalized to delivered dose in acceptor, fold lower than 0.1 M PFB EtOH formulation: interleukin-1α release divided by delivered dose in acceptor compartment, FIG. 8B
Procedure: Evaluation was conducted using human skin equivalent tissues (Epiderm™) with a human interleukin-1α ELISA kit. Interleukin-1α release has been previously established as an indicator for skin irritation and affords evaluating irritation without requiring removal of the test formulation from skin tissues, a potentially damaging process to the tissues when studying viscous formulations. 0.1 M and 0.2 M PFB EtOH formulations, positive control (5% sodium dodecyl sulfate (SDS) in PBS), negative control (PBS) and EtOH solvent control were also evaluated.
Skin irritation was assessed by measuring interleukin-1α release from Mat Tek Epiderm FT™ human skin equivalent tissues (MatTek Corporation, Ashland, Mass.). Experiments were performed according to the manufacturer's recommended protocol. Briefly, new media was added immediately before application of formulations. Formulations were applied to the surface of the tissues for 4 hours. After 4 hours, 200 μL of media was collected for interleukin-la analysis. Interleukin-la release was quantified using a Human Interleukin-la ELISA Kit (Pierce Biotechnology Inc., Rockford, Ill.) according to the manufacturer's recommended Protocol. ThermoFisher Scientific. Instructions of Human IL-1α ELISA Kit. Retrieved from https://www.thermofisher.com/order/catalog/product/EH2IL1A (2014). Absorbance of blank (0 pg/mL Interleukin-1α) was subtracted from absorbance of each sample.

[2] = Partition coefficient n-octanol/water (log Po/w); type: physicochemical
Procedure: Lipophilicity of propranolol melts or ionic liquids, measured as partition coefficient n-octanol/water (log Po/w), varied depending on the carbon chain length of the counter species (FIG. 6C). The log Po/w of propranolol melts or ionic liquids ranged from 0.76 to 1.76, and were between −0.41 of PRL:Cl and 3.12 of PFB.
A 250 mL volume of n-octanol was shaken with 25 mL of ddH2O and left overnight to obtain n-octanol saturated with water. A 250 mL volume of ddH2O was shaken with 25 mL of n-octanol and left overnight to obtain water saturated with n-octanol. Ten milliliters of saturated n-octanol was added to each 3H-labeled propranolol melt or ionic liquid (6-10 mg) in a 20-mL scintillation vial followed by stirring until the melt or ionic liquid was dissolved completely. 10 mL saturated water was shaken with 10 mL of the 3H-labeled propranolol melt or ionic liquid solution in octanol for 1 minute, followed by 2 minutes of gentle centrifugation (1000 rpm, 74×g, Allegra X-12R centrifuge, FX6100 rotor, Beckman Coulter, Brea, Calif.) to obtain clean separation of the two layers. […] The partition coefficient n-octanol/water was calculated as the logarithm of the concentration of propranolol in octanol divided by the concentration of propranolol in water.

[3] = Molar conductivity (neat, in water, in n-octanol); type: physicochemical; conditions: for molar conductivity in n-octanol: 1.32 mM PRL:C8, 1.24 mM PRL:C5, mean±SD; for molar conductivity in water in comparison to sodium chloride: 25° C. and 37° C., FIGS. 9A and 9B
[4] = neat melt, SD of three measurements in parentheses
Procedure: Standard deviations of three measurements are provided in parentheses.
Viscosity was measured using 1-mL samples with a LC-ARES Test Station (TA Instruments, New Castle, Del.) and a cone (diameter: 25 mm; angle: 0.1 rad). The cone rotation rate was 10 s^−1 and viscosity was measured three times per sample at 25° C. and 37° C. Differential scanning calorimetry (DSC) was performed with a Q2000 DSC with 50 position autosampler (TA Instruments, New Castle, Del.). Sample size was 9-10 mg, and was weighed in an aluminum hermetic pan. Samples were heated from room temperature to 120° C. under N2 atmosphere followed by cooling to […] and subsequent heating back to 120° C. with a ramp rate of 10° C. per minute.

[5] = porcine skin, 24 hours, 37° C.
Procedure: Franz diffusion cells were used to assess the skin transport of propranolol melts or ionic liquids using a previously established protocol described in Karande, P., et al., Discovery of transdermal penetration enhancers by high-throughput screening. […] Briefly, the acceptor chamber was filled with degas sed PBS or 4% bovine serum albumin in PBS and a small stir bar was added. Thawed porcine skin was clamped in place between the acceptor and donor chambers with the SC facing up. Care was taken to ensure no air bubbles resided in the acceptor chamber, and skin was stretched to minimize the presence of furrows. PFB solution in either IPM or EtOH was spiked with the 3H-labeled propranolol free base solution to a final concentration of 10 μCi/mL. Alternatively, 3H-labeled propranolol melts or ionic liquids were used as donor formulations. […] Samples from each tissue layer and acceptor solution were dissolved in Solvable (Perkin Elmer, Waltham, Mass.) overnight, and the amount of propranolol was measured using a scintillation counter and standard solution of radiolabeled donors. […] Furthermore, permeability (Kp) was calculated using the following equation, where Jss is the steady-state flux calculated as the slope of the linear portion of the plot of the cumulative amount permeated per unit area versus time, and C is propranolol concentration in donor. […]

[6] = Solubility in organic and aqueous solvents; type: physicochemical

| SMILES | partition coefficient n-octanol/water (log Po/w) [2] | molar conductivity in n-octanol ([3]; 25° C.) [S cm^2/mol] | molar conductivity in n-octanol ([3]; 37° C.) [S cm^2/mol] | molar conductivity in water in comparison to sodium chloride ([3]; water) | Dose-normalized skin irritation potential, fold lower than 0.1 M PFB EtOH formulation ([1]; 4 hours) [fold] | skin irritation potential normalized to delivered dose in acceptor, fold lower than 0.1 M PFB EtOH formulation [1] [fold] | Propranolol Melt Viscosity ([4]; 25° C.) | Propranolol Melt Viscosity ([4]; 37° C.) | further results |
| --- | --- | --- | --- | --- | --- | --- | --- | --- | --- |
| CCCCCCCCCCCCOS(=O)(=O)[O-].[Na+] [5% SDS in PBS, Sodium dodecyl sulfate, reference compound] |  |  |  |  |  |  |  |  | Interleukin-1α release (irritation) ([1]; 4 hours, FIG. 14A): highest amount of irritation |
| CC(C)NCC(O)COc1cccc2ccccc12 (stereo not shown) [PFB, propranolol free base] | 3.12 |  |  |  |  |  |  |  |  |
| CC(C)NCC(O)COc1cccc2ccccc12.CCCCCOC(=O)CC(C(=O)OCCCCC)S(=O)(=O)O (stereo not shown) [PRL:C5, propranolol diamyl sulfosuccinate] |  | 0.35±0.01 | 0.40±0.01 | much lower molar conductivity | 1.7 | 3.7 | 59.5 (1.6) Pa s | 14.7 (0.2) Pa s |  |
| CC(C)NCC(O)COc1cccc2ccccc12.CCCCCCOC(=O)CC(C(=O)OCCCCCC)S(=O)(=O)O (stereo not shown) [PRL:C6, propranolol dihexyl sulfosuccinate] |  |  |  |  |  |  | 1889.4 (325.2) Pa s | 180.9 (10.8) Pa s |  |
| CC(C)NCC(O)COc1cccc2ccccc12.CCCCC(CC)COC(=O)CC(C(=O)OCC(CC)CCCC)S(=O)(=O)O (stereo not shown) [PRL:C8, propranolol dioctyl sulfosuccinate] |  | 0.49±0.01 | 0.51±0.01 | much lower molar conductivity | 11 | 40 | 70.4 (0.9) Pa s | 16.9 (0.1) Pa s | amount of propranolol delivered into skin layers and acceptor [5]: delivery enhancement into each layer; skin permeability (flux normalized by applied dose) [5]: highest permeability among analog melts or ionic liquids; molar conductivity in water, fold lower than PRL:C5 ([3]; water, 37° C., concentrations >1 mM): ~10 fold; difference in skin irritation potential between PRL:C8 and PRL:C5 ([1]; dose-normalized, FIGS. 8A and 8B): ~10 fold |
| CC(C)NCC(O)COc1cccc2ccccc12 (stereo not shown) [PRL:Cl, propranolol hydrochloride] | −0.41 |  |  |  |  |  |  |  | solubility ([6]; methanol, organic solvent or mixture, read-out: solubility in methanol): 510 mM; solubility ([6]; water, read-out: solubility in water): 170 mM |
